Here are results for 39 compounds from patent US9233977B2, “Leucine-rich repeat kinase enzyme activity” (Merck Sharp & Dohme Corp., priority 2010, dated 2016).

For orientation: pIC50 means −log10 of the IC50, conventionally taken in molar units.

pIC50: −log10 of the molar value.

T1 sequence (Q5S007 whole entry G2019S): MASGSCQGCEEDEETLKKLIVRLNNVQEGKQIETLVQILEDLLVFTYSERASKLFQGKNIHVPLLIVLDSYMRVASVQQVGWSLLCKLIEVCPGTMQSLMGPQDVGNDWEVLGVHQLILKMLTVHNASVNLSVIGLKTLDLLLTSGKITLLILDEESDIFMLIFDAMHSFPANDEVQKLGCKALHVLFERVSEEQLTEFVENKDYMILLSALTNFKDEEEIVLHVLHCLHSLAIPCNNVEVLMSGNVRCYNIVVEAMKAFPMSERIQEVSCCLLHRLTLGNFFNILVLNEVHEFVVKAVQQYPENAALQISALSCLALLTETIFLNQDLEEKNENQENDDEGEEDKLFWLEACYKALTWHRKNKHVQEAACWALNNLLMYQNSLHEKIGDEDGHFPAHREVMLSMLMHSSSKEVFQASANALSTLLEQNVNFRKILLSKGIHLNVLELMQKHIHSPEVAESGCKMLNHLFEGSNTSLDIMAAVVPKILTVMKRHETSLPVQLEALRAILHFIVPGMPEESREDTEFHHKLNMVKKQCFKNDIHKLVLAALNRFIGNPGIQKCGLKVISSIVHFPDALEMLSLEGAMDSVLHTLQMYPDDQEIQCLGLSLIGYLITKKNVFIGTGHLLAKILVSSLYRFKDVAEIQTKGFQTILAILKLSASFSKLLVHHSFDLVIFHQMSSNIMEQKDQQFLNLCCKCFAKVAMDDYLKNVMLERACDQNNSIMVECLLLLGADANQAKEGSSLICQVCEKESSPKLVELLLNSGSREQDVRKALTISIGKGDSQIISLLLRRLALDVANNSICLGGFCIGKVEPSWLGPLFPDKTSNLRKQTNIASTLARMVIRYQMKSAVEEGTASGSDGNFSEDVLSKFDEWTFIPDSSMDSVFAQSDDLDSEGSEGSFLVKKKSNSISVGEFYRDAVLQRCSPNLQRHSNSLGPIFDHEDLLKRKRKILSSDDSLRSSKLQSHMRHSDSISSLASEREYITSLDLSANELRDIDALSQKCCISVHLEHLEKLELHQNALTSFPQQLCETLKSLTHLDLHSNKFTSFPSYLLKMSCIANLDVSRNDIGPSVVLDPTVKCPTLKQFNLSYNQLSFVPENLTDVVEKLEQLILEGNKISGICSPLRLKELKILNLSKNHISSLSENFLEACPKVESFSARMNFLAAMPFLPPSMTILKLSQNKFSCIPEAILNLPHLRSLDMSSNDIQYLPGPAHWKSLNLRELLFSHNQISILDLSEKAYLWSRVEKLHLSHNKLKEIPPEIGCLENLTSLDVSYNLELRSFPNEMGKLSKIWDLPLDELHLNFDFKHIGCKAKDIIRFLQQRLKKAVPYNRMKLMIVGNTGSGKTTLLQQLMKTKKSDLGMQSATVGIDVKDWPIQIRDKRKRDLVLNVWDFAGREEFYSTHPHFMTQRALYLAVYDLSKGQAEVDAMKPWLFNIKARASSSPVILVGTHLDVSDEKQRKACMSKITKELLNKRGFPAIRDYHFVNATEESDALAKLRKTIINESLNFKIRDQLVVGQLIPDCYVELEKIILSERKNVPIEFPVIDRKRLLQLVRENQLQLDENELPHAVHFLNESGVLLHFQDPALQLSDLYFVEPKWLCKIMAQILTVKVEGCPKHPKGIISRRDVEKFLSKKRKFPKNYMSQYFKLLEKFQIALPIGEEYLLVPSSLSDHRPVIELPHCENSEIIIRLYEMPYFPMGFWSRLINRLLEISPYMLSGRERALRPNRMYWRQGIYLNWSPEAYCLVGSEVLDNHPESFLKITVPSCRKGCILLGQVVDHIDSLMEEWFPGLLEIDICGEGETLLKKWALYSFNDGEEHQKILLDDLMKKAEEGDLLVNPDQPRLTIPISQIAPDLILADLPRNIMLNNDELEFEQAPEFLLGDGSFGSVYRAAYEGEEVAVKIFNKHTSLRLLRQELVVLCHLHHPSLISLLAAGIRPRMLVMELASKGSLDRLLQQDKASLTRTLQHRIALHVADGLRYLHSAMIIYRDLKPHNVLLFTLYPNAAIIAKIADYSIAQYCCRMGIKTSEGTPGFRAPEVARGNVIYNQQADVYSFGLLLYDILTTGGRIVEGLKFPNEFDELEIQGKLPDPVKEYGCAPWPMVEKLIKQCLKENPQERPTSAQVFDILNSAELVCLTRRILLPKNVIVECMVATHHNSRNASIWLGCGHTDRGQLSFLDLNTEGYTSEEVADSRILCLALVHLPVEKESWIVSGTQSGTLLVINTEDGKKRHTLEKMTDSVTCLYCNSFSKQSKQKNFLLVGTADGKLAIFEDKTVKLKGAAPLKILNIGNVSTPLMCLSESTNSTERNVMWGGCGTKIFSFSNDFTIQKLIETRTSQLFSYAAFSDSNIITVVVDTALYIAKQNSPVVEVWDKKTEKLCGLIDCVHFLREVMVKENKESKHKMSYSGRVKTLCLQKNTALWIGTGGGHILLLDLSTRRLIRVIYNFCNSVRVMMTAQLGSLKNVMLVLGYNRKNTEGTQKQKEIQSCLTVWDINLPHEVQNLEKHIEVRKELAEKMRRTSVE

The experiment has as its target T1, LRRK2 G2019S mutant kinase (Homo sapiens, UniProt Q5S007, G2019S).
T1 construct: GST; purchased Invitrogen PV4882
The experiment in a line: LRRK2 G2019S LanthaScreen TR-FRET kinase assay. The experiment is classed as biochemical. The note with it: LRRK2 G2019S GST-tagged protein, 75 nM Fluorescein-ERM (LRRKtide), 100 μM ATP, 1 hour at room temperature; read-out: IC50 (potency). As for the experimental part: The final solvent concentration in the assay was 1% DMSO. […] Generation of raw data and workup of data to derive the IC50 (potency) and maximal inhibition at concentrations tested were performed using Merck's Assay Data Analyzer (ADA) software.
The IC50 (potency) was evaluated for the example compounds presented above.
A general note: Time-resolved FRET reads energy transfer from a long-lived donor to a nearby acceptor.
For the compound `CCCSc1sc(-c2cc[nH]n2)c2c1C(=O)NCC2C` (stereo in doubt) [Example 28, (7S)-7-methyl-3-(propylsulfanyl)-1-(1H-pyrazol-3-yl)-6,7-dihydrothieno[3,4-c]pyridin-4(5)-one], the pIC50 is 7.38.
Then `CC1CNC(=O)c2c(SCC3CC3)sc(-c3cc[nH]n3)c21` (stereo in doubt) [Example 29], with 7.51.
Then `CSc1sc(-c2cc[nH]n2)c2c1C(=O)NCC2` [Example 1, 3-(Methylsulfanyl)-1-(1H-pyrazol-3-yl)-6,7-dihydrothieno[3,4-c]pyridin-4(5H)-one], with 6.34; and `CSc1sc(-c2cc[nH]n2)c2c1C(=O)NC(Cc1ccccc1)C2` (stereo not drawn) [Example 2, 6-benzyl-3-(methylsulfanyl)-1-(1H-pyrazol-3-yl)-6,7-dihydrothieno[3,4-c]pyridin-4(5)-one], with 6.59.
Then `CSc1sc(-c2cc[nH]n2)c2c1C(=O)NC(C)C2` (stereo not drawn) [Example 3, 6-methyl-3-(methylsulfanyl)-1-(1H-pyrazol-3-yl)-6,7-dihydrothieno[3,4-c]pyridin-4(5)-one], with 6.59.
Turning to `CSc1sc(-c2cc[nH]n2)c2c1C(=O)N(C(=O)OC(C)(C)C)C(C)C2` (stereo not drawn) [Example 4], the pIC50 is 5.32.
As for `CSc1sc(-c2cc[nH]n2)c2c1C(=O)NC1(CCC1)C2` [Example 5, 3′-(methylsulfanyl)-4′-oxo-1′-(1H-pyrazol-3-yl)-7′H-spiro[cyclobutane-1,6′-thieno[3,4-1]pyridine]-4′(5′H)-one], the figure is 6.80; as for `CSc1sc(-c2cc[nH]n2)c2c1C(=O)N(C(=O)OC(C)(C)C)C1(CCC1)C2` [Example 6, tert-butyl-6-methyl-3′-(methylsulfanyl)-4′-oxo-1′-(1H-pyrazol-3-yl)-7′H-spiro[cyclobutane-1,6′-thieno[3,4-1]pyridine]-5′(4′H)-carboxylate], 5.51.
As for `CSc1sc(-c2cc[nH]n2)c2c1C(=O)NC1(CC1)C2` [Example 7, 3′-(methylsulfanyl)-4′-oxo-1′-(1H-pyrazol-3-yl)-7′H-spiro[cyclopropanc-1,6′-thieno[3,4-1]pyridine]-4′(5′H)-one], the figure is 6.46; as for `CSc1sc(-c2cc[nH]n2)c2c1C(=O)NC1(CCCC1)C2` [Example 8, 3′-(methylsulfanyl)-4′-oxo-1′-(1H-pyrazol-3-yl)-7′H-spiro[cyclopentane-1,6′-thieno[3,4-1]pyridine]-4′(5′H)-one], 6.66.
Then `CSc1sc(-c2cc[nH]n2)c2c1C(=O)NC(C(F)(F)F)C2` (stereo not drawn) [Example 9, 6-trifiuoromethyl-3-(methylsulfanyl)-1-(1H-pyrazol-3-yl)-6,7-dihydrothieno[3,4-c]pyridin-4(5)-one], with 6.72; and `COCC1Cc2c(-c3cc[nH]n3)sc(SC)c2C(=O)N1` (stereo not drawn) [Example 11, 6-methoxymethyl-3-(methylsulfanyl)-1-(1H-pyrazol-3-yl)-6,7-dihydrothieno[3,4-c]pyridin-4(5)-one], with 6.47.
Consider `CSc1sc(-c2cc[nH]n2)c2c1C(=O)NC(CC(C)C)C2` (stereo not drawn) [Example 12, 6-(2-methylpropyl)-3-(methylsulfanyl)-1-(1H-pyrazol-3-yl)-6,7-dihydrothieno[3,4-c]pyridin-4(5)-one], for which the pIC50 was 6.52.
As for `CSc1sc(-c2cc[nH]n2)c2c1C(=O)NC(C1CC1)C2` (stereo not drawn) [Example 13, 6-cyclopropyl-3-(methylsulfanyl)-1-(1H-pyrazol-3-yl)-6,7-dihydrothieno[3,4-c]pyridin-4(5)-one], the figure is 6.35; as for `CSc1sc(-c2cc[nH]n2)c2c1C(=O)NC(C1CCC1)C2` (stereo not drawn) [Example 14, 6-cyclobutyl-3-(methylsulfanyl)-1-(1H-pyrazol-3-yl)-6,7-dihydrothieno[3,4-c]pyridin-4(5)-one], 6.72; as for `CSc1sc(-c2cc[nH]n2)c2c1C(=O)N[C@H](c1cc(F)cc(F)c1)C2` [Example 16, (6S)-3-(methylsulfanyl)-6-(3,5-difluorophenyl)-1-(1H-pyrazol-3-yl)-6,7-dihydrothieno[3,4-c]pyridin-4(5)-one], 6.62.
As for `CSc1sc(-c2cc[nH]n2)c2c1C(=O)N[C@H](c1cccc(F)c1)C2` [Example 17, (6S)-3-(methylsulfanyl)-6-(3-fluorophenyl)-1-(1H-pyrazol-3-yl)-6,7-dihydrothieno[3,4-c]pyridin-4(5)-one], the figure is 7.11; as for `CSc1sc(-c2cc[nH]n2)c2c1C(=O)N[C@H](c1ccc(F)cc1)C2` [Example 18, (6S)-3-(methylsulfanyl)-6-(4-fluorophenyl)-1-(1H-pyrazol-3-yl)-6,7-dihydrothieno[3,4-c]pyridin-4(5)-one], 7.07; as for `CSc1sc(-c2cc[nH]n2)c2c1C(=O)N[C@H](c1cccnc1)C2` [Example 19, (6S)-3-(methylsulfanyl)-6-(3-pyridyl)-1-(1H-pyrazol-3-yl)-6,7-dihydrothieno[3,4-c]pyridin-4(5)-one], 5.82.
Turning to `CSc1sc(-c2cc[nH]n2)c2c1C(=O)NC(C(=O)OC(C)(C)C)C2` (stereo not drawn) [Example 20, tert-butyl-3-(methylsulfanyl)-4-oxo-1-(1H-pyrazol-3-yl)-4,5,6,7-tetrahydrothieno[3,4-c]pyridine-carboxylate], the pIC50 is 5.10.
Turning to `CSc1sc(-c2cc[nH]n2)c2c1C(=O)NC[C@@H]2C` [Example 21, (7R)-7-methyl-3-(methylsulfanyl)-1-(1H-pyrazol-3-yl)-6,7-dihydrothieno[3,4-c]pyridin-4(5)-one], the pIC50 is 6.80.
Then `CSc1sc(-c2cc[nH]n2)c2c1C(=O)NC[C@H]2C` [Example 22, (7S)-7-methyl-3-(methylsulfanyl)-1-(1H-pyrazol-3-yl)-6,7-dihydrothieno[3,4-c]pyridin-4(5)-one], with 6.40; and `CSc1sc(-c2cc[nH]n2)c2c1C(=O)NCC2Cc1ccccc1` (stereo not drawn) [Example 25, 7-benzyl-3-(methylsulfanyl)-1-(1H-pyrazol-3-yl)-6,7-dihydrothieno[3,4-c]pyridin-4(5H)-one], with 6.82.
With `O=C1NCCc2c(-c3cc[nH]n3)sc(SCC3CC3)c21` [Example 26, 3-[(cyclopropylmethyl)sulfanyl]-1-(1H-pyrazol-3-yl)-6,7-dihydrothieno[3,4-c]pyridin-4(5)-one], the pIC50 was 6.52.
For the compound `O=C1NCCc2c(-c3cc[nH]n3)sc(SC3CCCC3)c21` [Example 30, 3-(Cyclopentylsulfanyl)-1-(1H-pyrazol-3-yl)-6,7-dihydrothieno[3,4-c]pyridin-4(5H)-one], the pIC50 is 6.54.
Take `CC1Cc2c(-c3cc[nH]n3)sc(SC3CCCC3)c2C(=O)N1` (stereo not drawn) [Example 31, 6-methyl-3-(cyclopentylsulfanyl)-1-(1H-pyrazol-3-yl)-6,7-dihydrothieno[3,4-c]pyridin-4(5)one]: the pIC50 was 7.46.
As for `O=C1NC2(CCC2)Cc2c(-c3cc[nH]n3)sc(SC3CCCC3)c21` [Example 32, 3′-(cyclopentylsulfanyl)-4′-oxo-1′-(1H-pyrazol-3-yl)-7′H-spiro[cyclobutane-1,6′-thieno[3,4-1]pyridine]-4′(5′H)-one], the pIC50 is 6.85.
As for `O=C1NC(Cc2ccccc2)Cc2c(-c3cc[nH]n3)sc(SC3CCCC3)c21` (stereo not drawn) [Example 33, 6-benzyl-3-(cyclopentylsulfanyl)-1-(1H-pyrazol-3-yl)-6,7-dihydrothieno[3,4-c]pyridin-4(5)-one], the figure is 6.28.
As for `CC(C)CC1Cc2c(-c3cc[nH]n3)sc(SC3CCCC3)c2C(=O)N1` (stereo not drawn) [Example 34, 6-(2-methylpropyl)-3-(cyclopentylsulfanyl)-1-(1H-pyrazol-3-yl)-6,7-dihydrothieno[3,4-c]pyridin-4(5)-one], the figure is 6.96; as for `O=C1NC(C(F)(F)F)Cc2c(-c3cc[nH]n3)sc(SC3CCCC3)c21` (stereo not drawn) [Example 35, 6-trifluoromethyl-3-(cyclopentylsulfanyl)-1-(1H-pyrazol-3-yl)-6,7-dihydrothieno[3,4-c]pyridin-4(5)-one], 6.80; as for `CC1CNC(=O)c2c(SC3CCCC3)sc(-c3cc[nH]n3)c21` (stereo not drawn) [Example 36, 7-methyl-3-(cyclopentylsulfanyl)-1-(1H-pyrazol-3-yl)-6,7-dihydrothieno[3,4-c]pyridin-4(5)-one], 7.28.
Then `CCCCNCCSc1sc(-c2cc[nH]n2)c2c1C(=O)NCC2` [Example 37, 3-{[2-(butylamino)ethyl]sulfanyl}-1-(1H-pyrazol-3-yl)-6,7-dihydrothieno[3,4-c]pyridin-4(5)one], with 5.28; and `O=C1NCCc2c(-c3cc[nH]n3)sc(SCCCO)c21` [Example 38], with 6.19.
`CCN(CC)CCSc1sc(-c2cc[nH]n2)c2c1C(=O)NCC2` [Example 39, 3-{[2-{diethylamino)ethyl]sulfanyl}-1-(1H-pyrazol-3-yl)-6,7-dihydrothieno[3,4-c]pyridin-4(5)-one]: the pIC50 was 5.24.
Consider `NCCSc1sc(-c2cc[nH]n2)c2c1C(=O)NCC2` [Example 40], for which the pIC50 was 5.33.
Consider `CC(C)Sc1sc(-c2cc[nH]n2)c2c1C(=O)NCC2` [Example 41, 3-[2-(1-methyl)ethylsulfanyl]-1-(1H-pyrazol-3-yl)-6,7-dihydrothieno[3,4-c]pyridin-4(5)-one], for which the pIC50 was 6.34.
Then `CCSc1sc(-c2cc[nH]n2)c2c1C(=O)NCC2` [Example 42, 3-ethylsulfanyl-1-(1H-pyrazol-3-yl)-6,7-dihydrothieno[3,4-c]pyridin-4(5)-one], with 6.44; and `CCCSc1sc(-c2cc[nH]n2)c2c1C(=O)NCC2` [Example 43, 3-propylsulfanyl-1-(1H-pyrazol-3-yl)-6,7-dihydrothieno[3,4-c]pyridin-4(5)-one], with 6.60; and `CCC(C)CSc1sc(-c2cc[nH]n2)c2c1C(=O)NCC2` (stereo not drawn) [Example 44, 3-[(2-methyl)butylsulfanyl]-1-(1H-pyrazol-3-yl)-6,7-dihydrothieno[3,4-c]pyridin-4(5)-one], with 6.89.
